What was measured:
[1] = Ex vivo plasma stability in mice serum; format: in vitro ADME, C57BL/6 mice; conditions: 10 μM probe; for time-dependent fluorescence emission in serum: C57/BL6 mice serum; for % survival rate of probe in serum: C57BL/6 mice serum, 37° C.
Method: Animal was treated strictly according to the guidelines for laboratory animal care and use issued by the Sunchon National University Institutional Animal Care and Use Committee (SCNU IACUC). Female C57/BL6 mice (7 weeks old), weighing about 17-20 g, were purchased from Orientbio (Orientbio Inc., Seongnam, Korea). Blood was collected from the posterior orbital plexus in normal mice and centrifuged (5000 rpm, 4° C., 5 minutes) to obtain serum. The stability study was performed by incubation of the fluorescent probe (10 μM) or rhodol fluorophore (0.1, 0.3, 1, 3 and 10 μM) with serum at 37° C. . . . The fluorescence was detected on Synergy™ H1 microplate reader.

[2] = system: Leucine aminopeptidase (LAP); experiment: Enzymatic kinetic study of LAP reaction of activatable fluorescent probes; format: biochemical, porcine; conditions: for Fluorophore released in LAP reaction (% yield) / kinetics of LAP reaction (time-dependent fluorescence emission) / Fluorophore released in LAP reaction (concentration): 1 μM probe, 10 μg/mL LAP, PBS pH 7.4, 37° C., 80 min; for Fluorophore released in LAP reaction (concentration): calculated from fluorophore calibration curves; for LAP response / fluorophore release (in words): LAP reaction, enzymatic study
Method: All spectroscopic readings were measured with BioTek Synergy™ H1 spectrophotometer, using 96 well microplate. A parent stock solution of probes was dissolved in DMSO to obtain 10 mM. Leucine aminopeptidase was dissolved in deionized water to obtain 1 mg/mL. All spectra measurements were carried out in PBS buffer solution (PBS buffer, 10 mM, pH 7.4, 37° C. The final volume in 96 well microplate was adjusted to 200 μL. RPMI 1640 was obtained from Thermo Scientific (Waltham, MA, USA). Bestatin hydrochloride (LAP inhibitor), DMSO and 2-mercaptoethanol were purchased from Sigma Aldrich (St. Louis, Mo, USA).
The kinetic study for LAP reaction was performed by incubation of 2 μg of LAP ([…]) with 1 μM probe in PBS buffer (10 mM, pH 7.4). The plate was incubated at 37° C. for 80 min with continuous shaking, and the emission spectra were recorded at the corresponding wavelength over time. A solution of LAP (2 μg/200 μL) was pretreated with bestatin (0, 1, 10, 50 and 100 μM) in PBS (10 mM, pH 7.4) at 37° C. for 30 min, and then 1 μM of probe was added. The mixture was incubated at 37° C., and the fluorescence was recorded on Synergy™ H1 using a 96-well microplate.
All reagents and solvents were obtained from commercial sources Sigma-Aldrich Chemical Co., Combi-Block, Tokyo Chemical Industries, Daejung Chemicals, and Alfa Aesar and used without purification. Anhydrous solvents were purchased from Sigma-Aldrich and used under dry nitrogen atmosphere. Ultrapure water was obtained from a water ultra-purification system. Completion of reaction was confirmed by thin layer chromatography (TLC) on Kiesegel 60F254 from Merck and all synthesized compounds were purified by flash column chromatography using ZEOprep 60 (40-63) […] silica gel from ZEOCHEM. ^1H and ^13C NMR spectra were measured on JEOL JNMECZ400s/L1 (400 MHZ) and CDCl3 or DMSO-d6 was used as the NMR solvents. The chemical shifts were quoted in parts per million (ppm) and the coupling constant (J) were reported in hertz unit (Hz). Chemical shifts (in ppm) were referenced to tetramethylsilane (δ=0 ppm) in CDCl3 as an internal standard. ^13C NMR spectra were reported in ppm referenced to the center line of the triplet at 77.0 ppm for CDCl3 or 39.5 ppm for DMSO-d6. All in vitro enzyme assays were performed by taking the absorbance and emission on Synergy™ H1 microplate reader from BioTek. Leucine aminopeptidase from porcine kidney and other enzymes were purchased from Sigma-Aldrich.

HepG2 cells [3] = experiment: Confocal live cell imaging in HepG2 cells; format: cell-based
Method: HepG2 cells were maintained in DMEM medium containing 10% FBS and 1% antibiotics in the 15 μ-plate 96 well black (ibidi, Germany). HepG2 cells were incubated with or without 500 μM of bestatin, LAP inhibitor, for 1 h and subsequently treated with 1 μM of probe and Lyso-Tracker™ Red (Thermo Scientific, USA) for 1 h. The treated cells were washed three times with PBS and treated with 10 μM of DAPI (Thermo Scientific, USA) for 2 h. Imaged were collected by Leica confocal microscopy (TCS SP5 AOBS/Tandem, Leica, Germany). Lyso-Tracker™ Red was excited by 514 nm and detected by 570-620 nm, compounds were excited by 476 nm and detected by 505-545 nm, DAPI was excited by 405 nm and detected by 420-470 nm.

[4] = system: Leucine aminopeptidase (LAP); experiment: Enzymatic kinetic study of LAP reaction of activatable fluorescent probes; format: biochemical, porcine; conditions: 1 μM probe; LAP 1, 5, 10, 20, 50, 100 μg/mL; PBS pH 7.4, 80 min, 37° C.
[5] = pH-dependent stability test; format: physicochemical; conditions: 1 μM probe, pH 2 to 12, 25° C.
Method: Thermal stability was evaluated by the incubation of 1 μM of the probe in PBS buffer (pH 7.4) at different temperatures ranging from 25 to 45° C. for 20 min and reading fluorescence at each temperature. The pH stability test was performed by the incubation with 1 μM probe in different pH buffers (2 to 13) at 25° C. and recording fluorescence at each pH.

[6] = target: T1, Leucine aminopeptidase (LAP) (Sus scrofa, UniProt P15145); experiment: Selectivity test against various bioanalytes; format: biochemical, porcine; conditions: 1 μM probe, 1 mM analytes or 1 U/mL enzymes, 0.05 U/mL LAP, PBS pH 7.4, 37° C., 1 h
T1 construct: purchased Sigma-Aldrich; host or cells: porcine kidney (tissue-derived enzyme)
T1 sequence (P15145 33-963 limits assumed): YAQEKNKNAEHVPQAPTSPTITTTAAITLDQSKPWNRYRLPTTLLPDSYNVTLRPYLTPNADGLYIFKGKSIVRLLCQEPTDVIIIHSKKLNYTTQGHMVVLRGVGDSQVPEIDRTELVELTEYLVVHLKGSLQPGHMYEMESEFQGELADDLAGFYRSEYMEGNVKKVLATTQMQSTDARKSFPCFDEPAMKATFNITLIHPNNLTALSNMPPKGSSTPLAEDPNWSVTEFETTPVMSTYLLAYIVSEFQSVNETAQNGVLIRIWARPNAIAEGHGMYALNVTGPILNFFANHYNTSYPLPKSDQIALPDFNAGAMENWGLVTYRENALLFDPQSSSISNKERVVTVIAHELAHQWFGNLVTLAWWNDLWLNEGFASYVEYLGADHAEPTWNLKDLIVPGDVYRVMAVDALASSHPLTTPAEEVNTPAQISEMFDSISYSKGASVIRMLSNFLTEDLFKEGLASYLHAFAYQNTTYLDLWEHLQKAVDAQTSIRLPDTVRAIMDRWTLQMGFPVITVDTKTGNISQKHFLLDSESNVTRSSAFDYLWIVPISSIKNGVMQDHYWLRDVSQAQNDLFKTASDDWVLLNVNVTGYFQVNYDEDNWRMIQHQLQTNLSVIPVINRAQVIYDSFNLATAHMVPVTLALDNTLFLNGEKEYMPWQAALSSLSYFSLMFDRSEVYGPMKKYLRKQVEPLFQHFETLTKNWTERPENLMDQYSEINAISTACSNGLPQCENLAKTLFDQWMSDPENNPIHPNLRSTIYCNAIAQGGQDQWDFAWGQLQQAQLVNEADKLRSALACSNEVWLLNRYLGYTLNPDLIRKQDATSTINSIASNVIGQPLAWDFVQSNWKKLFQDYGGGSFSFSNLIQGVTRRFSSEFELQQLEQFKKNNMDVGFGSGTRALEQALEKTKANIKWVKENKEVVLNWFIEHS
Method: 1 μM of probe was incubated with various bioanalytes containing 1 mM of NaOCl, H2O2, CaCl2), ZnCl2, KCl, NaCl, GSH, vitamin C, L-cystein, L-arginine, L-alanine and 1 U/mL of α-amylase, lysozyme, cellulase under 0.05 U/mL of LAP in PBS (10 mM, pH 7.4) at 37° C. for 1 h. The fluorescence was recorded on Synergy™ H1 microplate reader.

HepG2 cells [7] = experiment: Kinetic and competitive study in HepG2 cells; format: cell-based; conditions: bestatin pretreatment 0, 10, 100 μM; Rhodo-P2 2.0 μM
Method: HepG2 cells (3×10^4 cells/well) were seeded in black-walled, transparent bottomed 96-well plates and cultured overnight. […] Kinetic study was performed in Synergy™ H1 microplate reader.

[8] = system: Leucine aminopeptidase (LAP); experiment: Competitive assay with LAP inhibitor bestatin; format: biochemical, porcine; conditions: bestatin pretreatment 0, 1, 10, 50, 100 μM; LAP 10 μg/mL; PBS pH 7.4, 37° C.

Row | Fluorophore released in LAP reaction (% yield) ([2]; Rhoda-P2) [%] | Fluorophore released in LAP reaction (% yield) ([2]; listed as Rhoda-P2) [%] | Structure (SMILES) | time-dependent fluorescence emission in serum ([1]; 48 h) | % survival rate of probe in serum ([1]; 4 h p.i.) [%] | % survival rate of probe in serum ([1]; 48 h) [%] | Fluorophore released in LAP reaction (% yield) [2] [%] | kinetics of LAP reaction (time-dependent fluorescence emission) [2] | Fluorophore released in LAP reaction (concentration) [2] [µM] | lysosomal colocalization in confocal live cell imaging (HepG2 cells [3]; 1 μM probe, LysoTracker Red DND-99, DAPI, HepG2 cells) | LAP response at various concentrations of LAP [4] | pH-dependent stability (fluorescence of fluorophore released by degradation) [5] | selectivity for LAP over other bioanalytes (fluorescence response) [6] | LAP response / fluorophore release (in words) [2] | inhibition of Rhodo-P2 response in HepG2 cells (HepG2 cells [7]) | effect of bestatin on probe fluorescence in confocal live cell imaging (HepG2 cells [3]; bestatin 500 μM pretreatment for 1 h, Rhodo-P1 1 μM) | inhibition of LAP reaction of Rhodo-P2 (fluorescence emission) [8]
1 | – | – | COc1ccc2c(c1)Oc1cc(NC(=O)[C@@H](N)CC(C)C)ccc1C21OC(=O)c2ccccc21 (stereo partly drawn) [Probe 2, (2S)-2-Amino-N-(3′-methoxy-3-oxo-3H-spiro[isobenzofuran-1,9′-xanthen]-6′-yl)-4-methylpentanamide] | rapidly increased | 45 | 39 | 89.7 | faster kinetics than those of the corresponding P2 and P3 probes | ~0.897 | colocalized into lysosomes with LysoTracker | nearly maximal responses at 10 μg/mL of LAP | increased fluorescence emission in the pH range of 7-9 | – | – | – | – | –
2 | 98.7 | 74.7 | CCN(CC)c1ccc2c(c1)Oc1cc(NC(=O)OCc3ccc(NC(=O)[C@@H](N)CC(C)C)cc3)ccc1C21OC(=O)c2ccccc21 (stereo partly drawn) [Probe 3, 4-((S)-2-Amino-4-methylpentanamido)benzyl (3′-(diethylamino)-3-oxo-3H-spiro[isobenzofuran-1,9′-xanthen]-6′-yl)carbamate] | – | – | – | – | – | ~0.987 | – | – | no change in fluorescence emission according to the change in pH | – | – | – | – | –
3 | – | – | COc1ccc2c(c1)Oc1cc(NC(=O)OCc3ccc(NC(=O)[C@@H](N)CC(C)C)cc3)ccc1C21OC(=O)c2ccccc21 (stereo partly drawn) [Probe 4, 4-((S)-2-Amino-4-methylpentanamido)benzyl methoxy-3-oxo-3H-spiro[isobenzofuran-1,9′-xanthen]-6′-(3′-yl)carbamate] | fluorescence emission with a gentle increasing slope | – | 48 | 76.9 | – | ~0.769 | – | nearly maximal responses at 10 μg/mL of LAP | no change in fluorescence emission according to the change in pH | most biocompatible in selectivity tests as well as pH and thermal stability tests | high yields of LAP reactions | – | – | –
4 | – | – | COc1ccc2c(c1)Oc1cc(OCc3ccc(NC(=O)[C@@H](N)CC(C)C)cc3)ccc1C21OC(=O)c2ccccc21 (stereo partly drawn) [Probe 6, (2S)-2-Amino-N-(4-(((3′-methoxy-3-oxo-3H-spiro[isobenzofuran-1,9′-xanthen]-6′-yl)oxy)methyl)phenyl)-4-methylpentanamide] | – | – | – | 37.3 | notably slower kinetics | ~0.373 | – | nearly maximal responses at 10 μg/mL of LAP | – | – | lower responses | – | – | –
5 | – | – | CC(C)C[C@H](NC(=O)[C@@H](O)[C@H](N)Cc1ccccc1)C(=O)O [bestatin] | – | – | – | – | – | – | – | – | – | – | – | concentration-dependent inhibition of Rhodo-P2 | only showed blue staining by DAPI without green fluorescence from the LAP probe | reduced fluorescence emission by released fluorophores in a concentration-dependent manner
